Experiment: xn = mol fraction of the nth substance listed
Conditions: Liquid; for speed of sound: Sing-around technique in a fixed-path interferometer; for mass density: Vibrating tube method

C=CC(C)(O)CCC=C(C)C (stereo unspecified) [3,7-dimethyl-1,6-octadien-3-ol] + CCCO
Conditions | mass density, 283.15 K [kg/m3] | mass density, 298.15 K [kg/m3] | mass density, 313.15 K [kg/m3] | mass density, 328.15 K [kg/m3] | speed of sound, 283.15 K [m/s] | speed of sound, 298.15 K [m/s] | speed of sound, 313.15 K [m/s] | speed of sound, 328.15 K [m/s]
101 kPa, x1 = 0.0533 | – | – | – | – | – | – | 1171.9 | 1121
101 kPa, x1 = 0.0551 | 819.82 | 807.92 | 795.75 | 783.12 | 1274.4 | 1222.4 | – | –
101 kPa, x1 = 0.1051 | 826.23 | 814.32 | 802.06 | 789.69 | 1288.6 | 1236 | 1184.2 | 1132.6
101 kPa, x1 = 0.2014 | 836.56 | 824.59 | 812.16 | 799.39 | 1308.8 | 1255.7 | 1203.6 | 1151
101 kPa, x1 = 0.3032 | – | 832.73 | – | 807.41 | – | – | – | –
101 kPa, x1 = 0.3049 | 845.01 | – | 820.4 | – | 1326.2 | 1272.1 | 1218 | 1165.3
101 kPa, x1 = 0.3869 | 850.24 | 838.05 | 825.47 | – | – | 1281.3 | 1227.7 | –
101 kPa, x1 = 0.3946 | – | – | – | – | 1336.7 | – | – | –
101 kPa, x1 = 0.3947 | – | – | – | 812.99 | – | – | – | 1174.8
101 kPa, x1 = 0.4923 | 855.58 | 843.28 | 830.75 | – | – | – | – | –
101 kPa, x1 = 0.4925 | – | – | – | 817.72 | – | – | – | –
101 kPa, x1 = 0.4951 | – | – | – | – | 1345.4 | 1290.3 | 1236.5 | 1183.1
101 kPa, x1 = 0.5905 | 859.44 | – | 834.56 | – | – | – | – | –
101 kPa, x1 = 0.5917 | – | 847.16 | – | 821.54 | 1350.8 | 1295.7 | 1242.2 | 1189.7
101 kPa, x1 = 0.6818 | – | – | – | 824.42 | – | – | – | –
101 kPa, x1 = 0.6847 | – | – | – | – | 1355.2 | 1301 | 1247.2 | 1193.6
101 kPa, x1 = 0.6895 | 862.58 | – | 837.72 | – | – | – | – | –
101 kPa, x1 = 0.69 | – | 850.31 | – | – | – | – | – | –
101 kPa, x1 = 0.7653 | – | 852.26 | 839.66 | 826.67 | – | – | 1250.9 | 1197
101 kPa, x1 = 0.7685 | 864.67 | – | – | – | 1359 | 1304.8 | – | –
101 kPa, x1 = 0.8735 | 866.97 | 854.67 | 842.05 | 829.08 | 1364.2 | 1309.4 | 1255.2 | 1201.2
101 kPa, x1 = 0.9296 | 868.12 | 855.79 | 843.14 | 830.17 | 1366.3 | 1311.8 | 1258 | 1204.4
101 kPa, x1 = 1 | 869.39 | 857 | 844.29 | 831.31 | 1370.6 | 1315.1 | 1260.8 | 1207.6
20000 kPa, x1 = 0.0582 | 833.8 | 822.8 | 811.8 | 800.4 | – | – | – | –
20000 kPa, x1 = 0.1037 | 839.4 | 828.4 | 817.4 | 806 | – | – | – | –
20000 kPa, x1 = 0.1803 | 847.1 | 836.2 | 825.1 | 813.6 | – | – | – | –
20000 kPa, x1 = 0.3087 | 857.5 | 846.3 | 834.9 | 823.4 | – | – | – | –
20000 kPa, x1 = 0.4104 | 863.5 | 852.3 | 840.7 | 829.1 | – | – | – | –
20000 kPa, x1 = 0.4994 | 867.6 | 856.4 | 844.9 | 833.2 | – | – | – | –
20000 kPa, x1 = 0.5939 | 871.3 | 860 | 848.4 | 836.7 | – | – | – | –
20000 kPa, x1 = 0.7117 | 875.1 | 863.7 | 852.2 | 840.5 | – | – | – | –
20000 kPa, x1 = 0.7777 | 876.8 | 865.5 | 853.9 | 842.2 | – | – | – | –
20000 kPa, x1 = 0.8566 | 878.5 | 867 | 855.5 | 843.8 | – | – | – | –
20000 kPa, x1 = 0.9405 | 880.2 | 868.8 | 857.3 | 845.6 | – | – | – | –
20000 kPa, x1 = 1 | 881.2 | 869.7 | 858.1 | 846.4 | – | – | – | –
25000 kPa, x1 = 0.0582 | 837 | 826.1 | 815.4 | 804.3 | – | – | – | –
25000 kPa, x1 = 0.1037 | 842.5 | 831.7 | 820.9 | 809.7 | – | – | – | –
25000 kPa, x1 = 0.1803 | 850.1 | 839.3 | 828.4 | 817.1 | – | – | – | –
25000 kPa, x1 = 0.3087 | 860.5 | 849.4 | 838.3 | 826.9 | – | – | – | –
25000 kPa, x1 = 0.4104 | 866.4 | 855.4 | 844.1 | 832.7 | – | – | – | –
25000 kPa, x1 = 0.4994 | 870.5 | 859.5 | 848.1 | 836.7 | – | – | – | –
25000 kPa, x1 = 0.5939 | 874.2 | 863 | 851.7 | 840.2 | – | – | – | –
25000 kPa, x1 = 0.7117 | 877.9 | 866.7 | 855.4 | 843.9 | – | – | – | –
25000 kPa, x1 = 0.7777 | 879.6 | 868.5 | 857.1 | 845.6 | – | – | – | –
25000 kPa, x1 = 0.8566 | 881.3 | 870 | 858.7 | 847.2 | – | – | – | –
25000 kPa, x1 = 0.9405 | 883 | 871.8 | 860.4 | 848.9 | – | – | – | –
25000 kPa, x1 = 1 | 884 | 872.7 | 861.3 | 849.8 | – | – | – | –
30000 kPa, x1 = 0.0582 | 839.8 | 829.3 | 818.7 | 807.8 | – | – | – | –
30000 kPa, x1 = 0.1037 | 845.3 | 834.9 | 824.3 | 813.3 | – | – | – | –
30000 kPa, x1 = 0.1803 | 852.9 | 842.5 | 831.7 | 820.7 | – | – | – | –
30000 kPa, x1 = 0.3087 | 863.2 | 852.5 | 841.5 | 830.4 | – | – | – | –
30000 kPa, x1 = 0.4104 | 869.1 | 858.4 | 847.2 | 836 | – | – | – | –
30000 kPa, x1 = 0.4994 | 873.2 | 862.4 | 851.2 | 840 | – | – | – | –
30000 kPa, x1 = 0.5939 | 876.8 | 866 | 854.8 | 843.6 | – | – | – | –
30000 kPa, x1 = 0.7117 | 880.6 | 869.7 | 858.5 | 847.2 | – | – | – | –
30000 kPa, x1 = 0.7777 | 882.2 | 871.4 | 860.2 | 848.9 | – | – | – | –
30000 kPa, x1 = 0.8566 | 883.9 | 872.9 | 861.7 | 850.4 | – | – | – | –
30000 kPa, x1 = 0.9405 | 885.6 | 874.7 | 863.4 | 852.1 | – | – | – | –
30000 kPa, x1 = 1 | 886.6 | 875.6 | 864.3 | 853 | – | – | – | –
35000 kPa, x1 = 0.0582 | 842.8 | 832.4 | 822.1 | 811.3 | – | – | – | –
35000 kPa, x1 = 0.1037 | 848.3 | 837.9 | 827.5 | 816.7 | – | – | – | –
35000 kPa, x1 = 0.1803 | 855.7 | 845.4 | 834.8 | 823.9 | – | – | – | –
35000 kPa, x1 = 0.3087 | 866 | 855.4 | 844.6 | 833.6 | – | – | – | –
35000 kPa, x1 = 0.4104 | 871.9 | 861.2 | 850.4 | 839.3 | – | – | – | –
35000 kPa, x1 = 0.4994 | 875.9 | 865.2 | 854.3 | 843.2 | – | – | – | –
35000 kPa, x1 = 0.5939 | 879.4 | 868.7 | 857.8 | 846.7 | – | – | – | –
35000 kPa, x1 = 0.7117 | 883.2 | 872.4 | 861.5 | 850.4 | – | – | – | –
35000 kPa, x1 = 0.7777 | 884.9 | 874.1 | 863.2 | 852.1 | – | – | – | –
35000 kPa, x1 = 0.8566 | 886.5 | 875.6 | 864.7 | 853.6 | – | – | – | –
35000 kPa, x1 = 0.9405 | 888.2 | 877.3 | 866.4 | 855.2 | – | – | – | –
35000 kPa, x1 = 1 | 889.2 | 878.3 | 867.3 | 856.2 | – | – | – | –
40000 kPa, x1 = 0.0582 | 845.5 | 835.4 | 825.1 | 814.7 | – | – | – | –
40000 kPa, x1 = 0.1037 | 851.1 | 840.9 | 830.7 | 820.1 | – | – | – | –
40000 kPa, x1 = 0.1803 | 858.4 | 848.3 | 837.9 | 827.2 | – | – | – | –
40000 kPa, x1 = 0.3087 | 868.6 | 858.3 | 847.7 | 836.9 | – | – | – | –
40000 kPa, x1 = 0.4104 | 874.6 | 864 | 853.3 | 842.4 | – | – | – | –
40000 kPa, x1 = 0.4994 | 878.5 | 867.9 | 857.3 | 846.4 | – | – | – | –
40000 kPa, x1 = 0.5939 | 882.1 | 871.5 | 860.7 | 849.8 | – | – | – | –
40000 kPa, x1 = 0.7117 | 885.9 | 875.1 | 864.4 | 853.5 | – | – | – | –
40000 kPa, x1 = 0.7777 | 887.5 | 876.8 | 866.1 | 855.1 | – | – | – | –
40000 kPa, x1 = 0.8566 | 889.1 | 878.3 | 867.6 | 856.6 | – | – | – | –
40000 kPa, x1 = 0.9405 | 890.8 | 880 | 869.2 | 858.2 | – | – | – | –
40000 kPa, x1 = 1 | 891.8 | 881 | 870.2 | 859.2 | – | – | – | –
